ChEMBL document CHEMBL4138123, “Design, synthesis and biological evaluation of novel pyrazolochalcones as potential modulators of PI3K/Akt/mTOR pathway and inducers of apoptosis in breast cancer cells” (Eur J Med Chem, 2017)
Calls of active or inactive are those of the source. No cut-off for these calls is given here.

Assays:
SF-295 [1] = assay: Cytotoxicity against human SF295 cells assessed as cell growth at 1 uM after 48 hrs by sulforhodamine B assay relative to control; assay type: functional; details: SF-295, 48 h, read-out: Activity
MCF7 [2] = assay: Upregulation of BAX mRNA expression in human MCF7 cells at 2 uM after 48 hrs by qRT-PCR analysis; assay type: functional, cell-based
SF-295 [3] = assay: Cytotoxicity against human SF295 cells assessed as cell growth at 0.01 uM after 48 hrs by sulforhodamine B assay relative to control; assay type: functional; details: SF-295, 48 h, read-out: Activity
MCF7 [4] = assay: Downregulation of Bcl-2 mRNA expression in human MCF7 cells at 2 uM after 48 hrs by qRT-PCR analysis; assay type: functional, cell-based
CAKI-1 [5] = assay: Cytotoxicity against human Caki1 cells assessed as cell growth at 100 uM after 48 hrs by sulforhodamine B assay relative to control; assay type: functional; details: CAKI-1, 48 h, read-out: Activity
SF-295 [6] = assay: Cytotoxicity against human SF295 cells assessed as cell growth at 10 uM after 48 hrs by sulforhodamine B assay relative to control; assay type: functional; details: SF-295, 48 h, read-out: Activity
MCF7 [7] = assay: Induction of apoptosis in human MCF7 cells assessed as necrotic cells at 2 uM after 24 hrs by Annexin-V FITC/propidium iodide staining-based FACS analysis (reference value: 0.2%); assay type: functional
MCF7 [8] = assay: Downregulation of mTOR protein expression in human MCF7 cells at 2 uM after 24 hrs by Western blot analysis; assay type: functional, cell-based
SNB-75 [9] = assay: Cytotoxicity against human SNB75 cells assessed as cell growth at 10 uM after 48 hrs by sulforhodamine B assay relative to control; assay type: functional; details: SNB-75, 48 h, read-out: Activity
CAKI-1 [10] = assay: Cytotoxicity against human Caki1 cells assessed as cell growth at 0.1 uM after 48 hrs by sulforhodamine B assay relative to control; assay type: functional; details: CAKI-1, 48 h, read-out: Activity
SNB-75 [11] = assay: Cytotoxicity against human SNB75 cells assessed as growth inhibition after 48 hrs by sulforhodamine B assay; assay type: functional; details: SNB-75, 48 h
SF-295 [12] = assay: Cytotoxicity against human SF295 cells assessed as cell growth at 0.1 uM after 48 hrs by sulforhodamine B assay relative to control; assay type: functional; details: SF-295, 48 h, read-out: Activity
MCF7 [13] = assay: Downregulation of Akt1 mRNA expression in human MCF7 cells at 2 uM after 48 hrs by qRT-PCR analysis; assay type: functional, cell-based
CAKI-1 [14] = assay: Cytotoxicity against human Caki1 cells assessed as cell growth at 0.01 uM after 48 hrs by sulforhodamine B assay relative to control; assay type: functional; details: CAKI-1, 48 h, read-out: Activity
SNB-75 [15] = assay: Cytotoxicity against human SNB75 cells assessed as cell growth at 0.01 uM after 48 hrs by sulforhodamine B assay relative to control; assay type: functional; details: SNB-75, 48 h, read-out: Activity
CAKI-1 [16] = assay: Cytotoxicity against human Caki1 cells assessed as growth inhibition after 48 hrs by sulforhodamine B assay; assay type: functional; details: CAKI-1, 48 h
SNB-75 [17] = assay: Cytotoxicity against human SNB75 cells assessed as cell growth at 0.1 uM after 48 hrs by sulforhodamine B assay relative to control; assay type: functional; details: SNB-75, 48 h, read-out: Activity
MCF7 [18] = assay: Inhibition of PI3K in human MCF7 cells assessed as downregulation of phosphorylated Akt levels at 2 uM after 24 hrs by Western blot analysis; assay type: cell-based
MCF7 [19] = assay: Cell cycle arrest in human MCF7 cells assessed as accumulation at G2/M phase at 2 uM after 24 hrs by flow cytometric analysis (reference value: 2.35%); assay type: functional
MCF7 [20] = assay: Cell cycle arrest in human MCF7 cells assessed as accumulation at S phase at 2 uM after 24 hrs by flow cytometric analysis (reference value: 79.1%); assay type: functional
SNB-75 [21] = assay: Cytotoxicity against human SNB75 cells assessed as cell growth at 1 uM after 48 hrs by sulforhodamine B assay relative to control; assay type: functional; details: SNB-75, 48 h, read-out: Activity
CAKI-1 [22] = assay: Cytotoxicity against human Caki1 cells assessed as cell growth at 1 uM after 48 hrs by sulforhodamine B assay relative to control; assay type: functional; details: CAKI-1, 48 h, read-out: Activity
SF-295 [23] = assay: Cytotoxicity against human SF295 cells assessed as cell growth at 100 uM after 48 hrs by sulforhodamine B assay relative to control; assay type: functional; details: SF-295, 48 h, read-out: Activity
CAKI-1 [24] = assay: Cytotoxicity against human Caki1 cells assessed as cell growth at 10 uM after 48 hrs by sulforhodamine B assay relative to control; assay type: functional; details: CAKI-1, 48 h, read-out: Activity
MCF7 [25] = assay: Inhibition of PI3K in human MCF7 cells assessed as increase in GSK-3beta phosphorylation at Ser9 at 2 uM after 24 hrs by Western blot analysis; assay type: cell-based
SF-295 [26] = assay: Cytotoxicity against human SF295 cells assessed as growth inhibition after 48 hrs by sulforhodamine B assay; assay type: functional; details: SF-295, 48 h
SK-MEL-2 [27] = assay: Cytotoxicity against human SK-MEL-2 cells assessed as cell growth at 1 uM after 48 hrs by sulforhodamine B assay relative to control; assay type: functional; details: SK-MEL-2, 48 h, read-out: Activity
LOX IMVI [28] = assay: Cytotoxicity against human LOXIMVI cells assessed as cell growth at 10 uM after 48 hrs by sulforhodamine B assay relative to control; assay type: functional; details: read-out: Activity
LOX IMVI [29] = assay: Cytotoxicity against human LOXIMVI cells assessed as cell growth at 1 uM after 48 hrs by sulforhodamine B assay relative to control; assay type: functional; details: read-out: Activity
SK-MEL-2 [30] = assay: Cytotoxicity against human SK-MEL-2 cells assessed as cell growth at 0.01 uM after 48 hrs by sulforhodamine B assay relative to control; assay type: functional; details: SK-MEL-2, 48 h, read-out: Activity
LOX IMVI [31] = assay: Cytotoxicity against human LOXIMVI cells assessed as cell growth at 0.1 uM after 48 hrs by sulforhodamine B assay relative to control; assay type: functional; details: read-out: Activity
SK-MEL-2 [32] = assay: Cytotoxicity against human SK-MEL-2 cells assessed as cell growth at 10 uM after 48 hrs by sulforhodamine B assay relative to control; assay type: functional; details: SK-MEL-2, 48 h, read-out: Activity
SK-MEL-2 [33] = assay: Cytotoxicity against human SK-MEL-2 cells assessed as cell growth at 0.1 uM after 48 hrs by sulforhodamine B assay relative to control; assay type: functional; details: SK-MEL-2, 48 h, read-out: Activity
SK-MEL-2 [34] = assay: Cytotoxicity against human SK-MEL-2 cells assessed as cell growth at 100 uM after 48 hrs by sulforhodamine B assay relative to control; assay type: functional; details: SK-MEL-2, 48 h, read-out: Activity
LOX IMVI [35] = assay: Cytotoxicity against human LOXIMVI cells assessed as cell growth at 0.01 uM after 48 hrs by sulforhodamine B assay relative to control; assay type: functional; details: read-out: Activity
LOX IMVI [36] = assay: Cytotoxicity against human LOXIMVI cells assessed as cell growth at 100 uM after 48 hrs by sulforhodamine B assay relative to control; assay type: functional; details: read-out: Activity
HOP-92 [37] = assay: Cytotoxicity against human HOP92 cells assessed as growth inhibition after 48 hrs by sulforhodamine B assay; assay type: functional; details: HOP-92, 48 h
HOP-92 [38] = assay: Cytotoxicity against human HOP92 cells assessed as cell growth at 0.1 uM after 48 hrs by sulforhodamine B assay relative to control; assay type: functional; details: HOP-92, 48 h, read-out: Activity
HOP-92 [39] = assay: Cytotoxicity against human HOP92 cells assessed as cell growth at 100 uM after 48 hrs by sulforhodamine B assay relative to control; assay type: functional; details: HOP-92, 48 h, read-out: Activity
HOP-92 [40] = assay: Cytotoxicity against human HOP92 cells assessed as cell growth at 10 uM after 48 hrs by sulforhodamine B assay relative to control; assay type: functional; details: HOP-92, 48 h, read-out: Activity
HOP-92 [41] = assay: Cytotoxicity against human HOP92 cells assessed as cell growth at 0.01 uM after 48 hrs by sulforhodamine B assay relative to control; assay type: functional; details: HOP-92, 48 h, read-out: Activity
HOP-92 [42] = assay: Cytotoxicity against human HOP92 cells assessed as cell growth at 1 uM after 48 hrs by sulforhodamine B assay relative to control; assay type: functional; details: HOP-92, 48 h, read-out: Activity

SMILES	growth at 1 µM (SF-295 [1]) [%]	Activity (MCF7 [2])	growth at 0.01 µM (SF-295 [3]) [%]	Activity (MCF7 [4])	growth at 100 µM (CAKI-1 [5]) [%]	Activity (MCF7 [7]) [%]	Activity (MCF7 [8])	growth at 10 µM (SNB-75 [9]) [%]	growth at 0.1 µM (CAKI-1 [10]) [%]	GI50 (SNB-75 [11]) [µM]	Activity (MCF7 [13])	growth at 0.01 µM (CAKI-1 [14]) [%]	LC50 (CAKI-1 [16]) [µM]	TGI (CAKI-1 [16]) [µM]	phospho-Akt downregulation (active/inactive) (MCF7 [18])	Activity (MCF7 [19]) [%]	Activity (MCF7 [20]) [%]	growth at 1 µM (CAKI-1 [22]) [%]	growth at 10 µM (CAKI-1 [24]) [%]	Activity call (increase in GSK-3beta Ser9 phosphorylation) (MCF7 [25])	further results
COc1ccc(-c2cc(/C=C/C(=O)c3ccc(OC)c(OC)c3)[nH]n2)cc1	88	Active	98	Active	-70	0.7	Active	-53	96	1.55	Active	98	7.96	3.52	Active	18.6	66.1	77	-64	Active	growth at 10 µM (SF-295 [6]): -33%; LC50 (concentration killing 50% of cells) (SNB-75 [11]): 9.51 µM; TGI (SNB-75 [11]): 3.84 µM; growth at 0.1 µM (SF-295 [12]): 97%; growth at 0.01 µM (SNB-75 [15]): 88%; GI50 (CAKI-1 [16]): 1.55 µM; growth at 0.1 µM (SNB-75 [17]): 79%; growth at 1 µM (SNB-75 [21]): 74%; growth at 100 µM (SF-295 [23]): -83%; GI50 (SF-295 [26]): 2.08 µM; LC50 (SF-295 [26]): 22 µM; TGI (SF-295 [26]): 5.37 µM
COc1ccc(C(=O)/C=C/c2cc(-c3cc(OC)c(OC)c(OC)c3)n[nH]2)cc1OC	–	Active	–	Active	-91	0.1	Active	–	99	–	Active	97	19.4	5.46	Active	39.9	29.3	94	-33	Active	growth at 1 µM (SK-MEL-2 [27]): 98%; growth at 10 µM (LOX IMVI [28]): -93%; growth at 1 µM (LOX IMVI [29]): 73%; growth at 0.01 µM (SK-MEL-2 [30]): 86%; growth at 0.1 µM (LOX IMVI [31]): 92%; growth at 10 µM (SK-MEL-2 [32]): -81%; growth at 0.1 µM (SK-MEL-2 [33]): 91%; growth at 100 µM (SK-MEL-2 [34]): -96%; growth at 0.01 µM (LOX IMVI [35]): 92%; growth at 100 µM (LOX IMVI [36]): -79%
COc1ccc(C(=O)/C=C/c2cc(-c3cc(OC)c(OC)c(OC)c3)n[nH]2)cc1	–	Active	–	Active	1	–	Active	–	93	–	Active	95	> 100	–	Active	–	–	89	-17	Active	TGI (HOP-92 [37]): 3.04 µM; growth at 1 µM (SK-MEL-2 [27]): 97%; growth at 10 µM (LOX IMVI [28]): -92%; growth at 1 µM (LOX IMVI [29]): 85%; growth at 0.01 µM (SK-MEL-2 [30]): 92%; growth at 0.1 µM (HOP-92 [38]): 83%; growth at 0.1 µM (LOX IMVI [31]): 93%; growth at 10 µM (SK-MEL-2 [32]): 21%; growth at 0.1 µM (SK-MEL-2 [33]): 90%; growth at 100 µM (SK-MEL-2 [34]): -50%; growth at 100 µM (HOP-92 [39]): -36%; growth at 10 µM (HOP-92 [40]): -56%; growth at 0.01 µM (LOX IMVI [35]): 95%; growth at 0.01 µM (HOP-92 [41]): 87%; growth at 1 µM (HOP-92 [42]): 53%; growth at 100 µM (LOX IMVI [36]): -32%
COc1cc(C(=O)/C=C/c2cc(-c3ccc4c(c3)OCO4)n[nH]2)cc(OC)c1OC	85	Active	93	Active	-82	0.1	Active	-14	97	2.4	Active	96	26.1	5.65	Active	64.6	0	83	-27	Active	LC50 (concentration killing 50% of cells) (SNB-75 [11]): 26.1 µM; TGI (SNB-75 [11]): 7.27 µM; growth at 0.1 µM (SF-295 [12]): 95%; growth at 0.01 µM (SNB-75 [15]): 85%; GI50 (CAKI-1 [16]): 1.99 µM; growth at 0.1 µM (SNB-75 [17]): 87%; growth at 1 µM (SNB-75 [21]): 90%; growth at 100 µM (SF-295 [23]): -89%; GI50 (SF-295 [26]): 2.58 µM; LC50 (SF-295 [26]): 36.4 µM; TGI (SF-295 [26]): 10.1 µM
